PubChem BioAssay (NCI)
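All cell lines were grown in 96-well plates and treated with compound for 48 hours. GI50 = concentration required for 50% inhibition of growth. TGI: total growth inhibition.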

Legend:
Assay in all cases: NCI-60 cell line screen, 48 h
TK-10 renal = test system: TK-10 renal
HS 578T breast = test system: HS 578T breast
MDA-MB-435 = test system: MDA-MB-435
COLO 205 colon = test system: COLO 205 colon
HCC-2998 colon = test system: HCC-2998 colon
OVCAR-8 ovarian = test system: OVCAR-8 ovarian
HOP-92 NSCLC = test system: HOP-92 NSCLC
RXF 393 renal = test system: RXF 393 renal
SR leukemia = test system: SR leukemia
NCI/ADR-RES ovarian = test system: NCI/ADR-RES ovarian
SK-MEL-28 melanoma = test system: SK-MEL-28 melanoma
HCT-15 colon = test system: HCT-15 colon
HOP-62 NSCLC = test system: HOP-62 NSCLC
IGROV1 ovarian = test system: IGROV1 ovarian
K-562 leukemia = test system: K-562 leukemia
BT-549 breast = test system: BT-549 breast
MALME-3M melanoma = test system: MALME-3M melanoma
A498 renal = test system: A498 renal
T-47D breast = test system: T-47D breast
ACHN renal = test system: ACHN renal
DU-145 prostate = test system: DU-145 prostate
OVCAR-3 ovarian = test system: OVCAR-3 ovarian
HL-60(TB) leukemia = test system: HL-60(TB) leukemia
NCI-H460 lung = test system: NCI-H460 lung
PC-3 prostate = test system: PC-3 prostate
SNB-19 CNS = test system: SNB-19 CNS
SN12C renal = test system: SN12C renal
OVCAR-4 ovarian = test system: OVCAR-4 ovarian
CCRF-CEM leukemia = test system: CCRF-CEM leukemia
CAKI-1 renal = test system: CAKI-1 renal
RPMI-8226 leukemia = test system: RPMI-8226 leukemia
KM12 colon = test system: KM12 colon
MOLT-4 leukemia = test system: MOLT-4 leukemia
HCT-116 colon = test system: HCT-116 colon
SF-539 CNS = test system: SF-539 CNS
MDA-MB-468 breast = test system: MDA-MB-468 breast
SW-620 colon = test system: SW-620 colon
SK-OV-3 ovarian = test system: SK-OV-3 ovarian
MCF7 breast = test system: MCF7 breast
UACC-62 melanoma = test system: UACC-62 melanoma
UACC-257 melanoma = test system: UACC-257 melanoma
SF-295 CNS = test system: SF-295 CNS
OVCAR-5 ovarian = test system: OVCAR-5 ovarian
LOX IMVI melanoma = test system: LOX IMVI melanoma
NCI-H23 lung = test system: NCI-H23 lung
M14 melanoma = test system: M14 melanoma
SF-268 CNS = test system: SF-268 CNS
U251 CNS = test system: U251 CNS
A549 NSCLC = test system: A549 NSCLC
NCI-H226 lung = test system: NCI-H226 lung
NCI-H522 lung = test system: NCI-H522 lung
EKVX NSCLC = test system: EKVX NSCLC
SK-MEL-5 melanoma = test system: SK-MEL-5 melanoma
786-0 renal = test system: 786-0 renal
HT29 colon = test system: HT29 colon

## Cc1nn(-c2ccccc2)c2nc(C)n(CC(=O)N/N=C/c3ccccc3O)c(=O)c12
TK-10 renal
  GI50: 7.5 µM
  TGI: 45.4 µM
HS 578T breast
  GI50: 9.4 µM
  TGI: 70.9 µM
MDA-MB-435
  GI50: 8.63 µM
  TGI: > 100 µM
COLO 205 colon
  GI50: 2.83 µM
  TGI: 14.9 µM
HCC-2998 colon
  GI50: 4.29 µM
  TGI: 27.6 µM
OVCAR-8 ovarian
  GI50: 3.86 µM
  TGI: 21.1 µM
HOP-92 NSCLC
  GI50: 3.29 µM
  TGI: 20.6 µM
RXF 393 renal
  GI50: 4.92 µM
  TGI: 24.1 µM
SR leukemia
  GI50: 2.43 µM
  TGI: 10.8 µM
NCI/ADR-RES ovarian
  GI50: 3.79 µM
  TGI: 17.9 µM
SK-MEL-28 melanoma
  GI50: 4.58 µM
  TGI: 33.7 µM
HCT-15 colon
  GI50: 2.26 µM
  TGI: > 100 µM
HOP-62 NSCLC
  GI50: 4.63 µM
  TGI: 21.4 µM
IGROV1 ovarian
  GI50: 6.36 µM
  TGI: 66.3 µM
K-562 leukemia
  GI50: 3.48 µM
  TGI: > 100 µM
BT-549 breast
  GI50: 3.74 µM
  TGI: 25.4 µM
MALME-3M melanoma
  GI50: 4.33 µM
  TGI: 30 µM
A498 renal
  GI50: 19.3 µM
  TGI: 83.1 µM
T-47D breast
  GI50: 4.41 µM
  TGI: 36.9 µM
ACHN renal
  GI50: 2.62 µM
  TGI: 14.7 µM
DU-145 prostate
  GI50: 6.32 µM
  TGI: > 100 µM
OVCAR-3 ovarian
  GI50: 2.66 µM
  TGI: 28 µM
HL-60(TB) leukemia
  GI50: 2.13 µM
  TGI: 7.52 µM
NCI-H460 lung
  GI50: 3.59 µM
  TGI: 16.2 µM
PC-3 prostate
  GI50: 4.47 µM
  TGI: 29.3 µM
SNB-19 CNS
  GI50: 7.44 µM
  TGI: 39.2 µM
SN12C renal
  GI50: 5.64 µM
  TGI: 46 µM
OVCAR-4 ovarian
  GI50: 3.18 µM
  TGI: 42.8 µM
CCRF-CEM leukemia
  GI50: 2.09 µM
  TGI: 16.8 µM
CAKI-1 renal
  GI50: 4.93 µM
  TGI: 26.2 µM
RPMI-8226 leukemia
  GI50: 5.53 µM
  TGI: 48.4 µM
KM12 colon
  GI50: 4.12 µM
  TGI: > 100 µM
MOLT-4 leukemia
  GI50: 2.59 µM
  TGI: 10.7 µM
HCT-116 colon
  GI50: 4.85 µM
  TGI: 18.9 µM
SF-539 CNS
  GI50: 4.46 µM
  TGI: 26.9 µM
MDA-MB-468 breast
  GI50: 3.36 µM
  TGI: 19.4 µM
SW-620 colon
  GI50: 4.22 µM
  TGI: > 100 µM
SK-OV-3 ovarian
  GI50: 6.5 µM
  TGI: 28.5 µM
MCF7 breast
  GI50: 3.62 µM
  TGI: 31.1 µM
UACC-62 melanoma
  GI50: 3.02 µM
  TGI: 12.5 µM
UACC-257 melanoma
  GI50: 5.46 µM
  TGI: 31.3 µM
SF-295 CNS
  GI50: 4.79 µM
  TGI: 22.6 µM
OVCAR-5 ovarian
  GI50: 8.89 µM
  TGI: 51.4 µM
LOX IMVI melanoma
  GI50: 1.78 µM
  TGI: 14 µM
NCI-H23 lung
  GI50: 4.62 µM
  TGI: 22.4 µM
M14 melanoma
  GI50: 2.89 µM
  TGI: 15.6 µM
SF-268 CNS
  GI50: 3.31 µM
  TGI: > 100 µM
U251 CNS
  GI50: 3.93 µM
  TGI: 19.6 µM
A549 NSCLC
  GI50: 6.12 µM
  TGI: 21.1 µM
NCI-H226 lung
  GI50: 12.9 µM
  TGI: 38.9 µM
NCI-H522 lung
  GI50: 3.4 µM
  TGI: 22.2 µM
EKVX NSCLC
  GI50: 2.55 µM
  TGI: 17 µM
SK-MEL-5 melanoma
  GI50: 3.75 µM
  TGI: 19.4 µM
786-0 renal
  GI50: 6.16 µM
  TGI: 31.8 µM
HT29 colon
  GI50: 4.91 µM
  TGI: 20.5 µM
